According to US8394799B2, “Compounds that inhibit HIF-1 activity, the method for preparation thereof and the pharmaceutical composition containing them as an effective component” (Korea Research Institute of Bioscience and Biotechnology, priority 2006, dated 2013):

Legend:
EPO or VEGF = test: Expression of EPO or VEGF, target genes of HIF-1, in hypoxia (RT-PCR); format: cell-based, human; settings: RT-PCR, 0, 1, 3 and 10 μM, 12 hrs in 1% O2, FIG. 3
Source text: The inhibitory effect of the compounds of the present invention on HIF-1 activity was confirmed by assaying the compounds prepared in Examples for inhibition activity on the expression of EPO or VEGF, a representative target gene of HIF-1 through an analysis of RT-PCR (reverse transcriptase polymerase chain reaction). VEGF, a target gene of HIF-1, encodes an angiogenesis factor playing a pivotal role in the growth and metastasis of cancer and EPO is a hematosis hormone gene, and both genes have been known for being deeply related to the development and the aggravation of cancer. The compounds of the present invention were measured for inhibition of VEGF expression in AGS, Hep3B and HepG2 cells. In this regard, the hepatocellular carcinoma cell line Hep3B was treated with compounds prepared in Examples 18 and 126 as follows.
After being grown to 70% confluency in culture dishes, HepG2 cells (American Type Culture Collection) were treated with various concentrations (0 μm, 1 μm 3 μM and 10 μm) of compounds prepared in Examples 18, 44, 113 or 126 and incubated for 12 hrs in hypoxia (1% O2, 94%, N2, and 5% CO2, expressed as ‘1% O2’ in FIG. 2). Total RNA was isolated using an RNA Mini kit (Qiagen). From the total RNA (2 μg) thus obtained, cDNA was synthesized using an RT-PCR kit (Invitrogen), and was used to amplify EPO or VEGF by PCR in the presence of EPO or VEGF-specific primers. EPO or VEGF expression was quantitatively analyzed by running the PCR products on agarose gel. As an internal control, GAPDH was simultaneously amplified so as to analyze the selective inhibition of each compound for VEGF. Base sequences of primers used for the amplification of EPO, VEGF and GAPDH used in the present invention were as follows.

HIF-1 [1] = test: HRE reporter assay, HIF activity % remaining, AGS cells; format: cell-based, human; settings: summary in words of the data of Table 1 and Table 2; cell line not stated
Source text: (§1) Six tandem repeats of HRE (hypoxia Responsive Element 5′-ACGTG-3′), which is present in a human VEGF gene, was inserted into the multi-cloning region of a pGL3-basic vector (Promega) containing a luciferase gene as a reporter gene to produce a recombinant pGL3-HRE-luciferase vector which was then used to assay the compounds prepared in the above Examples for inhibition activity against HIF-mediated transcriptional activity.
The hepatocellular carcinoma cell line HepG2 or Hep3B, both available from ATCC (American Type Culture Collection), and the gastric carcinoma cell line AGS, available from ATCC, were grown at 70% confluency in culture dishes and co-transfected with an internal control vector (pRL-CMV, Promega) and the recombinant pGL3-HRE-luciferase vector using Lipofectamine Plus Reagent (Invitrogen). HepG2 and AGS cells were treated with the compound of Chemical Formula 1A while Hep3B and AGS cells were treated with the compound of Chemical Formula 1B. The compound of Chemical Formula 1A was used in a concentration of 10 μm for HepG2 or AGS cells. The compound of Chemical Formula 1B was used in a concentration of 30 μM for Hep3B and in a concentration of 10 μM for AGS cells. […] The compounds prepared in Examples above were assayed for inhibition activity against HIF-1 by measuring the activity of the luciferase, induced in hypoxia, using a Dual-luciferase reporter assay system (Promoga). In this regard, the luciferase activity was measured for 10 sec using a Microlumat Plus luminometer (EG&G Berthold). In the meanwhile, the renilla luciferase activity from the control vector PRL-CMV (Promega) was measured to normalize the data obtained.
On the basis of the renilla luciferase activity, the HIF activity % remaining after treatment with the compounds was corrected.

HIF-1 [2] = test: Assay of IC50, SK-Hep-1 cells (same manner); format: cell-based; settings: Homo sapiens, SK-HEP1; SK-Hep-1 cell line, compounds 0.01 to 100 μM for 16 hrs
Source text: as §1

[3] = system: metastatic breast carcinoma cell line MDA-MB-435; test: In vivo anticancer activity in nude mice implanted with MDA-MB-435; settings: for inhibition of the growth of the cancer cells compared to the control: once a day, MDA-MB-435 in nude mice
Source text: Female nude mice 5-6 weeks old (Crj:BALB/c nu/nu, Charles River) were bred in germ-free breeding rooms maintained at constant temperature and humidity. The nude mice were anesthetized before incision of the chest skin. The metastatic breast carcinoma cell line MDA-MB-435, obtained from DR D. R. Welch, Univ. Alabama, was implanted at a count of 10^6 cells/mouse into the mammary gland fat pad, and the incisions were then closed with surgical clips. The nude mice were divided into test groups and a control group, each consisting of 6 mice. […] For the control group, Solution A alone was used at a dose of 100 μl once a day. Thereafter, tumor volumes and body weights were measured once a week. Tumor volumes were calculated according to the following Mathematic Formula 1. Tumor Volume (mm^3)=(Length of Long Axis,mm)×(Length of Short Axis,mm)^2×0.5 <Mathematic Formula 1>

[4] = Acute toxicity, single oral administration in mice; settings: mouse, in vivo, 300 mg/kg
Procedure: An acute cytotoxicity assay was conducted with five-week-old SPF C57BL/6 mice (Samtako BioKorea) as follows.

HIF-1 [5] = test: Assay of IC50, AGS cells (HRE-luciferase transfected); format: cell-based; settings: Homo sapiens
Source text: as §1

HIF-1 [6] = test: Assay of IC50, Hep3B cells (HRE-luciferase transfected); format: cell-based; settings: Homo sapiens
Source text: as §1

| SMILES | expression of EPO or VEGF in hypoxia (EPO or VEGF) | inhibition activity against the transcription mediated by HIF-1, induced in hypoxia (HIF-1 [1]) | IC50 (HIF-1 [2]) | inhibition of the growth of the cancer cells compared to the control ([3]; 20 mg/kg) | inhibition of the growth of the cancer cells compared to the control ([3]; 50 mg/kg) | deaths in six mice of each group ([3]; mouse, in vivo) | toxicity (death, clinical syndromes, body weight, autopsy) [4] | IC50 (HIF-1 [5]) | IC50 (HIF-1 [6]) | deaths in six mice of each group ([3]; 50 mg/kg) |
| --- | --- | --- | --- | --- | --- | --- | --- | --- | --- | --- |
| NC(=O)c1ccnc(NC(=O)COc2ccc(C34CC5CC(CC(C5)C3)C4)cc2)c1 [Example 113, 2-[2-(4-adamantan-1-yl-phenoxy)acetylamino]-isonicotinamide] | inhibit the expression of EPO or VEGF dose-dependently | excellent inhibition activity | 590 nM | – | – | – | – | – | – | – |
| COC(=O)c1ccc(O)c(NC(=O)COc2ccc(C34CC5CC(CC(C5)C3)C4)cc2)c1 [Example 18, 3-[2-(4-Adamantan-1-yl-phenoxy)acetyl-amino]-4-hydroxy benzoic acid methyl ester] | inhibit the expression of EPO or VEGF dose-dependently | excellent inhibition activity | – | 46.5% | 64.6% | No dead were observed | no toxicity | 700 nM | 2600 nM | – |
| NC(=O)c1cccc(NC(=O)COc2ccc(C34CC5CC(CC(C5)C3)C4)cc2)c1 [Example 23, 3-[2-(4-Adamantan-1-yl-phenoxy)acetyl-amino]-benzamide] | – | excellent inhibition activity | – | – | – | – | – | 1000 nM | 4300 nM | – |
| O=C(COc1ccc(Cl)cc1Cl)Nc1cc(C(=O)O)ccn1 [Example 95, 2-[2-(2,4-dichloro-phenoxy)-acetylamino]-isonicotinic acid] | – | – | – | 4.3% | 36.5% | – | – | – | – | No dead were observed |
| O=C(COc1ccc(C23CC4CC(CC(C4)C2)C3)cc1)Nc1cc(C(=O)O)ccc1O [Example 48, 3-[2-(4-Adamantan-1-yl-phenoxy)-acetylamino]-4-hydroxy-benzoic acid] | – | excellent inhibition activity | – | – | – | – | – | 350 nM | 400 nM | – |
| COC(=O)c1ccc2[nH]c(COc3ccc(C45CC6CC(CC(C6)C4)C5)cc3)nc2c1 [Example 126, 2-(4-adamantan-1-yl-phenoxymethyl)-1H-benzoimidazole-5-carboxylic acid methyl ester] | inhibit the expression of EPO or VEGF dose-dependently | excellent inhibition activity | – | 53% | 58.6% | No dead were observed | no toxicity | – | – | – |
| O=C(COc1ccc(C23CC4CC(CC(C4)C2)C3)cc1)Nc1cccc(C(=O)O)c1 [Example 44, 3-[2-(4-Adamantan-1-yl-phenoxy)-acetylamino]-benzoic acid] | inhibit the expression of EPO or VEGF dose-dependently | excellent inhibition activity | – | – | – | – | – | 2500 nM | 5000 nM | – |
